Reference: US10682330B2, “Method for producing liposome encapsulating paclitaxel monoglycoside and/or docetaxel monoglycoside” (ENSUIKO SUGAR REFINING CO., LTD., priority 2012, dated 2020)
In brackets after ≈: the same amount, converted by molar mass.

Tests used:
[1] = system: SK-BR-3, human-derived breast cancer cell; experiment: Anti-cancer activity, MTT assay (Test Example 3); type: cell-based; conditions: PTX, gPTX dissolved in DMSO, liposomes prepared with gPTX in 40% ethylene glycol solution; for IC50: Homo sapiens
Method: IC50 of each of the PTX and gPTX dissolved in DMSO, and gPTX-L and gPTX-IL prepared by using gPTX dissolved in a 40% (volume) ethylene glycol solution was measured by an MTT assay. As a test target cell, SK-BR-3, which is a human-derived breast cancer cell, was used. IT50 was also calculated. IT50 indicates the half of time required for attaining the drug concentration at which all of the cells die, and can be easily calculated based on the survival curve obtained by plotting the percentage of cell viability to the time axis.

[2] = Encapsulation efficiency and loading efficiency in liposome by HPLC (Test Example 2); type: physicochemical; conditions: drug solution in 40% EG (1 mg/mL), comparative example
Method: Subsequently, after the eggplant flask was immersed in a hot bath at 60° C. for five minutes, a gPTX solution (1 ml) (Cremophor:ethanol:ultra-pure water=12:12:76, volume ratio) adjusted to a concentration of 20 mg/ml, or a PTX solution (Cremophor:ethanol:ultra-pure water=12:12:76, volume ratio) at a concentration of 2 mg/ml was added thereto to dissolve the lipid film, thus preparing a multilamellar vesicle (MLV).
In a comparative example, the above-mentioned 1 mg/ml gPTX solution (10 mM phosphate buffer containing 40% (volume) ethylene glycol) was used in place of the 20 mg of gPTX solution to encapsulate gPTX in a liposome.
The efficiency of paclitaxel monoglycoside encapsulated in the obtained liposome or immunoliposome was calculated as follows. First, the standard curve of each of the gPTX and PTX was obtained. […]
Next, 0.1% Triton X-100 ( 1/10 volume) was added to a prepared liposome, and the liposome was broken by sonication. Thereafter, the solution (10 μl) was measured by HPLC, and the encapsulated drug amount was obtained using the standard curve. […]
Using the following formulae (1) and (2), the encapsulation efficiency (EE) and loading efficiency (LE) were calculated based on the obtained drug amount. […]

[3] = system: SK-BR-3, human-derived breast cancer cell; experiment: Anti-cancer activity, MTT assay on SK-BR-3 (Test Example 9); type: cell-based; conditions: for IC50: Homo sapiens; for IC50 / IT50: SK-BR-3; for IC50 / IC100: SK-BR3, 72 hours; for IT50: drug added at IC100
Method: (§1) In the same manner as in Test Example 3, anti-cancer activity was measured. SK-BR-3, which is a human-derived breast cancer cell, and HT-29, which is a colon adenocarcinoma cell, were used. Specifically, cells were seeded to a 96 well-plate at 5000 cells/well, and incubated for 24 hours. Then, PTX, gPTX, gPTX-L, and gPTX-IL were separately added at different concentrations, followed by incubation.
(§2) 72 hours later, the percentage of cell viability was calculated by an MTT assay. First, the concentration (IC50) at which 50% of the cells die was obtained from the survival curve. Subsequently, the time (IT50) at which 50% of the cells die was obtained from the survival curve. After the cells were seeded, PTX, gPTX, gPTX-L, or gPTX-IL was added at a concentration attaining IC100, which was obtained from the survival curve. Incubation was then performed for 1, 2, 6, 12, 24, 48, or 72 hours, and then medium exchange was performed. 72 hours after the drug addition, the MTT assay was performed in the same manner as in the above experiment to obtain the survival rate, and calculate the IT50 therefrom.

[4] = system: HT-29, colon adenocarcinoma cell; experiment: Anti-cancer activity, MTT assay on HT-29 (Test Example 9); type: cell-based; conditions: for IC100 / IC50: 72 hours; for IC50: Homo sapiens; for IT50: drug added at IC100
Method: as §1, §2

[5] = Solubility in mixed solvent Cremophor EL:ethanol:PBS (pH 7.4) 12:12:76 (Test Example 1); type: physicochemical; conditions: for solubility: Cremophor EL:ethanol:PBS 12:12:76 mixed solvent, pH 7.4, aqueous with cosolvent or surfactant or cyclodextrin, ethanol, Cremophor EL, PBS pH 7.4 (12:12:76); for Concentration at which dissolved: Cremophor:ethanol:PBS (pH 7.4) 12:12:76
Method: Powdery gPTX and paclitaxel (hereinbelow, referred to as PTX in the Examples) produced by the method disclosed in NPL 1 were individually weighed in predetermined amounts, followed by addition of ethanol (120 μL) and mixing using a vortex. Cremophor® EL (available from Wako Pure Chemical Industries. Ltd.) (120 μL) was further mixed with each solution liquid, and then PBS (pH 7.4, 760 μL) was mixed. The solubility of each of the gPTX and PTX was confirmed.

[6] = Solubility in 10 mM phosphate buffer containing 10 to 40% ethylene glycol (Test Example 1); type: physicochemical; conditions: aqueous with cosolvent or surfactant or cyclodextrin
Method: In all cases, gPTX was mixed so that the concentration became 1 mg/mL.

HT-29 tumor = experiment: In vivo anti-cancer activity, tumor volume (Test Example 11); parameters: species or system ICR-nu/nu mouse; conditions: tail vein two times, interval 3 hours; total gPTX 150 mg/kg, trastuzumab 200 mg/kg; N=4
Source text: (§3) HT-29 cells were subcutaneously administered at 3.0×10^6 cells to each ICR-nu/nu mouse (male, 5 weeks old). When the tumor volume became about 50 to 200 mm^3, the above gPTX, the gPTX-L produced in Test Example 7, the gPTX-IL produced in Test Example 9, trastuzumab, the liposome (empty L) encapsulating no gPTX and having no antibody (trastuzumab) produced in Test Example 9, the liposome (empty IL) encapsulating […] and having an antibody (trastuzumab) produced in Test Example 9, a CEP buffer, or PBS was administered via tail vein two times at an interval of 3 hours (N=4). The dose per each was 200 μl/20 g. The total dose of gPTX was 150 mg/kg, and the total dose of trastuzumab was 200 mg/kg. The tumor volume shift after administration was observed. […] The tumor volume was calculated from the formula (3) below. Tumor volume=(tumor smallest diameter^2×tumor longest diameter)/2 (3)

ICR-nu/nu mouse = experiment: Body weight shift and survival in HT-29 bearing mice (Test Example 11); type: in vivo; conditions: total dose of gPTX 150 mg/kg; N=4
Source text: as §3
The body weight shift and the survival rate in each group were measured. FIGS. 6 to 9 show the results.

BALB/c mouse = conditions: in vivo
Method: Specifically, gPTX, gPTX-L, a CEP buffer (Cremophor:ethanol:ultra-pure water=12:12:76; volume ratio), or PBS was administered via tail vein to each BALB/c mouse (female, 6 weeks old) two times with an interval of three hours (N=4). The dose per each was 200 μl/20 g. The total dose of gPTX was 150 or 100 mg/kg in view of gPTX. Observation over time was performed during and after the administration.

Structure (SMILES)	IC50 [1]	IT50 [1]	IC50 [3]	IC100 [3]	IT50 [3]	IC100 [4]	IC50 [4]	IT50 [4]	solubility ([5]; Concentration 2 mg/ml)	solubility ([5]; Concentration 10 mg/ml)	solubility ([5]; Concentration 20 mg/ml)	Concentration at which dissolved [5]	other results
CC(=O)O[C@H]1C(=O)[C@@]2(C)[C@H]([C@H](OC(=O)c3ccccc3)[C@]3(O)C[C@H](OC(=O)[C@H](O)[C@@H](NC(=O)c4ccccc4)c4ccccc4)C(C)=C1C3(C)C)[C@]1(OC(C)=O)CO[C@@H]1C[C@@H]2O [PTX, paclitaxel]	5.91 nM	15.9 h	5.5 ± 1.3 nM	30 nM	9.8 h	10 nM	1.3 ± 0.5 nM	11.9 h	> 2000 µg/mL	< 3000 µg/mL	< 3000 µg/mL	about 2 mg/ml	EE (encapsulation efficiency) [2]: not encapsulated in the liposome; solubility ([5]; Concentration 3 mg/ml): < 3000 µg/mL
CC(=O)O[C@H]1C(=O)[C@@]2(C)C([C@H](OC(=O)c3ccccc3)[C@@]3(O)CC1=C(C)C(OC(=O)[C@H](O)[C@@H](NC(=O)c1ccccc1)c1ccccc1)C3)[C@]1(OC(C)=O)CO[C@@H]1C[C@H]2OC(=O)COC1OC(CO)C(O)C(O)C1O (stereo partly drawn) [gPTX, 7-α-glucosyloxyacetylpaclitaxel]	46 nM	18.7 h	18.9 ± 1.1 nM	100 nM	8.3 h	50 nM	11 ± 0.8 nM	9.6 h	> 20000 µg/mL	> 20000 µg/mL	> 20000 µg/mL	20000 µg/mL	solubility ([6]; Ethylene glycol (EG) 10%, 10 mM phosphate buffer, read-out: Solubility of 1 mg/mL gPTX): < 1000 µg/mL; solubility ([6]; Ethylene glycol (EG) 20%, 10 mM phosphate buffer, read-out: Solubility of 1 mg/mL gPTX): < 1000 µg/mL; solubility ([6]; Ethylene glycol (EG) 30%, 10 mM phosphate buffer, read-out: Solubility of 1 mg/mL gPTX): < 1000 µg/mL; solubility ([6]; Ethylene glycol (EG) 40%, 10 mM phosphate buffer, read-out: Solubility of 1 mg/mL gPTX): > 1000 µg/mL; solubility ([6]; PBS containing 40% (volume) ethylene glycol, read-out: Solubility of gPTX): ~1000 µg/mL (≈ 956 µM); Tumor growth inhibition effect (tumor volume) (HT-29 tumor): remarkably excellent anti-tumor growth inhibition effect; Body weight shift (ICR-nu/nu mouse): remarkable body weight loss; Deaths after administration (ICR-nu/nu mouse): two mice died in three hours after the administration, and one died one week after the administration; solubility ([5]; Concentration 30 mg/ml): < 30000 µg/mL; Body weight change (FIG. 4) (BALB/c mouse): significant body weight loss; Mice dead one day after the administration (FIG. 3) (BALB/c mouse): three
